Measurements published in the kinase profiling compilation of Christmann-Franck et al. (2016).

Assays:
Test in all cases: radiometric filter-binding kinase assay
[1] = target: PRKCA (human) (UniProt P17252)
[2] = target: GCK (human) (UniProt Q12851)
[3] = target: TBK1 (human) (UniProt Q9UHD2)
[4] = target: DYRK2 (human) (UniProt Q92630)
[5] = target: BRSK1 (human) (UniProt Q8TDC3)
[6] = target: EPHA2 (human) (UniProt P29317)
[7] = target: EPHB2 (human) (UniProt P29323)
[8] = target: DYRK3 (human) (UniProt O43781)
[9] = target: MARK3 (human) (UniProt P27448)
[10] = target: SYK (human) (UniProt P43405)
[11] = target: YES1 (human) (UniProt P07947)
[12] = target: EPHB1 (human) (UniProt P54762)
EPHB1 (human), sequence (P54762 whole entry, looked up): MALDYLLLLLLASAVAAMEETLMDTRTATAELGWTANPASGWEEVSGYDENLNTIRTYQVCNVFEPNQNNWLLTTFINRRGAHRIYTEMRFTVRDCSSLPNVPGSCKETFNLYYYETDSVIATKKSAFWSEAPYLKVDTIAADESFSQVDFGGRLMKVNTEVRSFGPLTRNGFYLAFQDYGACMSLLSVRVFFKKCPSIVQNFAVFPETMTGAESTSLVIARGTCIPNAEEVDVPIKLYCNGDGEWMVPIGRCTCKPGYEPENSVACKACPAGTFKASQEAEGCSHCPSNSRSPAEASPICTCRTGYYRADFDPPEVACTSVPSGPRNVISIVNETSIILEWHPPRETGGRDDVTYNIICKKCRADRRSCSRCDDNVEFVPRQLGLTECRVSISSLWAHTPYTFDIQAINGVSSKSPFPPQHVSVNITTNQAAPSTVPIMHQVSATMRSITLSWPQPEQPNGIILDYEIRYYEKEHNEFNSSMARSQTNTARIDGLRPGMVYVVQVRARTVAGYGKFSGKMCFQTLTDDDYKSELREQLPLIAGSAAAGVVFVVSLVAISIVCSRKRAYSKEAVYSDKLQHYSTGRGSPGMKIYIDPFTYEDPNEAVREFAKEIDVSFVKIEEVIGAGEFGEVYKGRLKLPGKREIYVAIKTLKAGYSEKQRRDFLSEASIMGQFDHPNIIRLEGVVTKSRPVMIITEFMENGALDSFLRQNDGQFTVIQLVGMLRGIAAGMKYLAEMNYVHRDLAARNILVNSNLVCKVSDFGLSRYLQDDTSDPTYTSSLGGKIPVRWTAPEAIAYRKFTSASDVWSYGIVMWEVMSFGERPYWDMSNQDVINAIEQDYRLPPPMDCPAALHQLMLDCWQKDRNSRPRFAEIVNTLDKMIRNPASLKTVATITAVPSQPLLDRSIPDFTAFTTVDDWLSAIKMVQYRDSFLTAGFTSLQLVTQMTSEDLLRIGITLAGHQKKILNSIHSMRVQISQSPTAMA

[13] = target: BRSK2 (human) (UniProt Q8IWQ3)
BRSK2 (human), sequence (Q8IWQ3 whole entry, looked up): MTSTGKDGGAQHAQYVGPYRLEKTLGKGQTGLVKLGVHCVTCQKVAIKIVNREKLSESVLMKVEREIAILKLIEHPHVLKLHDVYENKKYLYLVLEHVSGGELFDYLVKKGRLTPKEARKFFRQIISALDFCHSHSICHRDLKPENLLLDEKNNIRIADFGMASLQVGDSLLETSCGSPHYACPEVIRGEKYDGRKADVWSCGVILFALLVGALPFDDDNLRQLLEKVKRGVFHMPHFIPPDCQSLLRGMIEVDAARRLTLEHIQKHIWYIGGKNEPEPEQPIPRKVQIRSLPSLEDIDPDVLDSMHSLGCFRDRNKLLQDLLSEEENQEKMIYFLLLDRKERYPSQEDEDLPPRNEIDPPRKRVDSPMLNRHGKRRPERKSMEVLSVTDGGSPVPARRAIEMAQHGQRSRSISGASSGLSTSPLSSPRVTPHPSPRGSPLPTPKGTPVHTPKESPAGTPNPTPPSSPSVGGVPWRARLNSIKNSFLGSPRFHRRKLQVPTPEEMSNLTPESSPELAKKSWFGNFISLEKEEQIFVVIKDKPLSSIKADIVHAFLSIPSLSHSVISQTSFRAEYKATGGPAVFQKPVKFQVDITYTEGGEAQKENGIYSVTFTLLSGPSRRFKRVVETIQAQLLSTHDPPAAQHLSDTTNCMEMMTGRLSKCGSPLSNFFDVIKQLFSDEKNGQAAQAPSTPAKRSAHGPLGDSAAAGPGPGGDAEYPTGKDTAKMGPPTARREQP

[14] = target: AURKA (human) (UniProt O14965)
[15] = target: BTK (human) (UniProt Q06187)
[16] = target: HIPK2 (human) (UniProt Q9H2X6)
[17] = target: MAP3K5 (human) (UniProt Q99683)
[18] = target: CaMK1 (human) (UniProt Q14012)
[19] = tested on: AKT1 (human), P31749 [S473D]
[20] = target: FLT1 (human) (UniProt P17948)
[21] = target: HIPK1 (human) (UniProt Q86Z02)
[22] = target: MAPK8 (human) (UniProt P45983)
[23] = target: STK3 (human) (UniProt Q13188)
[24] = target: MAP2K1 (human) (UniProt Q02750)
[25] = target: TAOK1 (human) (UniProt Q7L7X3)
TAOK1 (human), sequence (Q7L7X3 whole entry, looked up): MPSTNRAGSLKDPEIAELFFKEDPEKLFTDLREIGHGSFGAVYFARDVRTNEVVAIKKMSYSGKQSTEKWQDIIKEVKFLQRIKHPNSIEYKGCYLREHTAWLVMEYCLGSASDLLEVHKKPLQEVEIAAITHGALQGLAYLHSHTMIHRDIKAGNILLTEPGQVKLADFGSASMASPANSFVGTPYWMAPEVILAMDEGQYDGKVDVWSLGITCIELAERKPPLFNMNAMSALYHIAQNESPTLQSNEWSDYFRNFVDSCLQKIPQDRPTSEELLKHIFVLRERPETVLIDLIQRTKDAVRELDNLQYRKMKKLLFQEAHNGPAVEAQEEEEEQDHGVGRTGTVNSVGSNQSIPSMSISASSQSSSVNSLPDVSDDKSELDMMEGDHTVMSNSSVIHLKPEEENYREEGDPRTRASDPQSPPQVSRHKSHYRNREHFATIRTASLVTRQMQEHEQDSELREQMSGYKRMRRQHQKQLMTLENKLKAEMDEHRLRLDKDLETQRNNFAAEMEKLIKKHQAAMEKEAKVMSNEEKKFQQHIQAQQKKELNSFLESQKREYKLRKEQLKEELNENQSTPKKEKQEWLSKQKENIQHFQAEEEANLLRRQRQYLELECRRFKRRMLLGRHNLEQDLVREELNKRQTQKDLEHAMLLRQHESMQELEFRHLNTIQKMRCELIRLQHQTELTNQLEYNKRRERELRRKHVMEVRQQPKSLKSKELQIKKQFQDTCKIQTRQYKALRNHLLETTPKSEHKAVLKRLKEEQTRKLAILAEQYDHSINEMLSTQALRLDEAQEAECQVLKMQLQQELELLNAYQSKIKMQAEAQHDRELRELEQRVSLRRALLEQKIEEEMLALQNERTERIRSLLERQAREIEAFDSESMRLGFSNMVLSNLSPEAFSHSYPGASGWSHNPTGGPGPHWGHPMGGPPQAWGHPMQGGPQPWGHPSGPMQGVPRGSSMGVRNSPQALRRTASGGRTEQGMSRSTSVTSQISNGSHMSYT

[26] = target: MAPK11 (human) (UniProt Q15759)
[27] = target: MAPKAPK5 (human) (UniProt Q8IW41)
[28] = tested on: RPS6KB1 (human), P23443 [T412E]
[29] = target: JAK2 JH1 JH2 (human) (UniProt O60674)
[30] = target: MAPK10 (human) (UniProt P53779)
[31] = target: PIM1 (human) (UniProt P11309)
PIM1 (human), sequence (P11309 whole entry, looked up): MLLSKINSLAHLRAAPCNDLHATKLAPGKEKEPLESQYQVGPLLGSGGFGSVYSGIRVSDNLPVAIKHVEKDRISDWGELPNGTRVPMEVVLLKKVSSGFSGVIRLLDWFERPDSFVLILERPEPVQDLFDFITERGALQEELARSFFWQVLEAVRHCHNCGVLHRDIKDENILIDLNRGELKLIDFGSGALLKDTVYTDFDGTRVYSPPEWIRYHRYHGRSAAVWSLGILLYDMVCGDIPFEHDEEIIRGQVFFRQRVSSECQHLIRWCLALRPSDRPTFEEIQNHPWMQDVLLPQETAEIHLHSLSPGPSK

[32] = target: MAPK9 (human) (UniProt P45984)
[33] = target: EPHB4 (human) (UniProt P54760)
EPHB4 (human), sequence (P54760 whole entry, looked up): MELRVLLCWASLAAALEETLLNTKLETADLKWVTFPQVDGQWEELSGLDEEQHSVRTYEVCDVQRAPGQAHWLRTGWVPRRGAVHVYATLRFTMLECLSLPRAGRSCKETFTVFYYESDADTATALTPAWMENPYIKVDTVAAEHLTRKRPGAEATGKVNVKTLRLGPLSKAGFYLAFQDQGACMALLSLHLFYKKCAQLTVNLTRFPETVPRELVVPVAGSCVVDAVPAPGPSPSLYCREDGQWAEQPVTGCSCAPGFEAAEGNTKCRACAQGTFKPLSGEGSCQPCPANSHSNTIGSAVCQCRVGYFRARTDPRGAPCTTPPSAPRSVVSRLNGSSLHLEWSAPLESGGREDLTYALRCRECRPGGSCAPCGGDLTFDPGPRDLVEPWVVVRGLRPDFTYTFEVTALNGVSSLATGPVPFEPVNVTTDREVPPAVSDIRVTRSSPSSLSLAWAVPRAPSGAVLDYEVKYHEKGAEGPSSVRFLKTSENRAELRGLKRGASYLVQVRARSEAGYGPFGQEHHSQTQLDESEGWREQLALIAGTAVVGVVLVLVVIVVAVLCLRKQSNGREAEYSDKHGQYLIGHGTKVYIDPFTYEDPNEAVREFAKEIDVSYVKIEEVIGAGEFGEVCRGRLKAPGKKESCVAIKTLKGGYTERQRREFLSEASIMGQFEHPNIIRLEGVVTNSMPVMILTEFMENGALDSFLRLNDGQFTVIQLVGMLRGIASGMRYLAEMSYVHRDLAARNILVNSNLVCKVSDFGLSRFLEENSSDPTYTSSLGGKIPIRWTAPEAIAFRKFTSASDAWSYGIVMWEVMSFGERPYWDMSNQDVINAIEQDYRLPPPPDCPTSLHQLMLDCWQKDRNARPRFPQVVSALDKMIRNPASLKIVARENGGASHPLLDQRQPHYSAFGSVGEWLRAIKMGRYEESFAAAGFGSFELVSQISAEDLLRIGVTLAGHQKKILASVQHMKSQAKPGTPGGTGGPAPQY

[34] = target: INSR (human) (UniProt P06213)
[35] = target: MAP3K11 (human) (UniProt Q16584)

GCK (human), sequence (Q12851 whole entry, looked up): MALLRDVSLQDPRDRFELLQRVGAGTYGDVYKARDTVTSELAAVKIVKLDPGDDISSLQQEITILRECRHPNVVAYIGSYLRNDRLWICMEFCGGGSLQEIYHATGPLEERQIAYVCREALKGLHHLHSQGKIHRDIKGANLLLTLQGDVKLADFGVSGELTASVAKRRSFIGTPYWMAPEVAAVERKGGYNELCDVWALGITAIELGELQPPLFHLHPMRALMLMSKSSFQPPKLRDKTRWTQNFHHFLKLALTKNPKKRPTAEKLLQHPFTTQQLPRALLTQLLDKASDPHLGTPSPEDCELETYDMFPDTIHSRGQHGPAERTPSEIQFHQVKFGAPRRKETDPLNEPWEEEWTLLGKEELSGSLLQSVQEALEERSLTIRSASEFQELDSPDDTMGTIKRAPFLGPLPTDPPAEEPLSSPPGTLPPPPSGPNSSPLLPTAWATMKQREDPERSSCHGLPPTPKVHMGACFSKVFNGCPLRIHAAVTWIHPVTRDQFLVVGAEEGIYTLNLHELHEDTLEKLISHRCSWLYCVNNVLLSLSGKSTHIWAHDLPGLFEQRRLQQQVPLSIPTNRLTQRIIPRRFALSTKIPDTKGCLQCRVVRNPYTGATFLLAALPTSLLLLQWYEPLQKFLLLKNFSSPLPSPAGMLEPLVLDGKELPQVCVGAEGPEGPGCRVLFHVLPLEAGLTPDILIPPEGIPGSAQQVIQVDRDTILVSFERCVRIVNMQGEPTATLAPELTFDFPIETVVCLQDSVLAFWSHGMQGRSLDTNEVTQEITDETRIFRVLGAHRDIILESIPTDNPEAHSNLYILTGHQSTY

## NC(=O)c1c(NC(=O)C2CC2)sc2c1CCCC2
[1]; compound 1.0 µM
  residual activity: 93%
[1]; compound 10.0 µM
  residual activity: 86%
[2]; compound 1.0 µM
  residual activity: 69%
[2]; compound 10.0 µM
  residual activity: 17%
[3]; compound 1.0 µM
  residual activity: 99%
[3]; compound 10.0 µM
  residual activity: 107%
[4]; compound 1.0 µM
  residual activity: 109%
[4]; compound 10.0 µM
  residual activity: 86%
[5]; compound 1.0 µM
  residual activity: 97%
[5]; compound 10.0 µM
  residual activity: 90%
[6]; compound 1.0 µM
  residual activity: 87%
[6]; compound 10.0 µM
  residual activity: 52%
[7]; compound 1.0 µM
  residual activity: 104%
[7]; compound 10.0 µM
  residual activity: 62%
[8]; compound 1.0 µM
  residual activity: 111%
[8]; compound 10.0 µM
  residual activity: 109%
[9]; compound 1.0 µM
  residual activity: 90%
[9]; compound 10.0 µM
  residual activity: 69%
[10]; compound 1.0 µM
  residual activity: 102%
[10]; compound 10.0 µM
  residual activity: 106%
[11]; compound 1.0 µM
  residual activity: 92%
[11]; compound 10.0 µM
  residual activity: 79%
[12]; compound 1.0 µM
  residual activity: 117%
[13]; compound 1.0 µM
  residual activity: 99%
[13]; compound 10.0 µM
  residual activity: 73%
[14]; compound 1.0 µM
  residual activity: 87%
[14]; compound 10.0 µM
  residual activity: 22%
[15]; compound 1.0 µM
  residual activity: 90%
[15]; compound 10.0 µM
  residual activity: 68%
[16]; compound 1.0 µM
  residual activity: 94%
[16]; compound 10.0 µM
  residual activity: 52%
[17]; compound 1.0 µM
  residual activity: 106%
[17]; compound 10.0 µM
  residual activity: 96%
[18]; compound 1.0 µM
  residual activity: 98%
[18]; compound 10.0 µM
  residual activity: 70%
[19]; compound 1.0 µM
  residual activity: 115%
[19]; compound 10.0 µM
  residual activity: 102%
[20]; compound 1.0 µM
  residual activity: 45%
[20]; compound 10.0 µM
  residual activity: 9%
[21]; compound 1.0 µM
  residual activity: 100%
[21]; compound 10.0 µM
  residual activity: 87%
[22]; compound 1.0 µM
  residual activity: 97%
[22]; compound 10.0 µM
  residual activity: 102%
[23]; compound 1.0 µM
  residual activity: 90%
[23]; compound 10.0 µM
  residual activity: 53%
[24]; compound 1.0 µM
  residual activity: 92%
[24]; compound 10.0 µM
  residual activity: 88%
[25]; compound 1.0 µM
  residual activity: 87%
[25]; compound 10.0 µM
  residual activity: 69%
[26]; compound 1.0 µM
  residual activity: 99%
[26]; compound 10.0 µM
  residual activity: 98%
[27]; compound 1.0 µM
  residual activity: 96%
[27]; compound 10.0 µM
  residual activity: 62%
[28]; compound 1.0 µM
  residual activity: 100%
[28]; compound 10.0 µM
  residual activity: 98%
[29]; compound 1.0 µM
  residual activity: 104%
[29]; compound 10.0 µM
  residual activity: 60%
[30]; compound 1.0 µM
  residual activity: 94%
[30]; compound 10.0 µM
  residual activity: 84%
[31]; compound 1.0 µM
  residual activity: 96%
[31]; compound 10.0 µM
  residual activity: 87%
[32]; compound 1.0 µM
  residual activity: 106%
[32]; compound 10.0 µM
  residual activity: 96%
[33]; compound 1.0 µM
  residual activity: 101%
[33]; compound 10.0 µM
  residual activity: 55%
[34]; compound 1.0 µM
  residual activity: 101%
[34]; compound 10.0 µM
  residual activity: 97%
[35]; compound 1.0 µM
  residual activity: 89%
[35]; compound 10.0 µM
  residual activity: 37%

## Cc1cc(NC(=O)c2cccc(NC(=O)/C=C/CN(C)C)c2)ccc1Nc1nccc(-c2cccnc2)n1
[1]; compound 0.1 µM
  residual activity: 93%
[1]; compound 1.0 µM
  residual activity: 90%
[2]; compound 0.1 µM
  residual activity: 98%
[2]; compound 1.0 µM
  residual activity: 73%
[3]; compound 1.0 µM
  residual activity: 106%
[4]; compound 0.1 µM
  residual activity: 73%
[4]; compound 1.0 µM
  residual activity: 72%
[5]; compound 0.1 µM
  residual activity: 99%
[5]; compound 1.0 µM
  residual activity: 87%
[6]; compound 0.1 µM
  residual activity: 118%
[6]; compound 1.0 µM
  residual activity: 111%
[7]; compound 0.1 µM
  residual activity: 101%
[7]; compound 1.0 µM
  residual activity: 97%
[8]; compound 0.1 µM
  residual activity: 94%
[8]; compound 1.0 µM
  residual activity: 80%
[9]; compound 0.1 µM
  residual activity: 92%
[9]; compound 1.0 µM
  residual activity: 93%
[10]; compound 0.1 µM
  residual activity: 103%
[10]; compound 1.0 µM
  residual activity: 88%
[11]; compound 0.1 µM
  residual activity: 87%
[11]; compound 1.0 µM
  residual activity: 39%
[12]; compound 0.1 µM
  residual activity: 97%
[12]; compound 1.0 µM
  residual activity: 95%
[13]; compound 0.1 µM
  residual activity: 87%
[13]; compound 1.0 µM
  residual activity: 77%
[14]; compound 0.1 µM
  residual activity: 97%
[14]; compound 1.0 µM
  residual activity: 91%
[16]; compound 0.1 µM
  residual activity: 92%
[16]; compound 1.0 µM
  residual activity: 99%
[17]; compound 0.1 µM
  residual activity: 100%
[17]; compound 1.0 µM
  residual activity: 91%
[18]; compound 0.1 µM
  residual activity: 92%
[18]; compound 1.0 µM
  residual activity: 86%
[19]; compound 0.1 µM
  residual activity: 102%
[19]; compound 1.0 µM
  residual activity: 98%
[20]; compound 0.1 µM
  residual activity: 100%
[20]; compound 1.0 µM
  residual activity: 53%
[21]; compound 0.1 µM
  residual activity: 103%
[21]; compound 1.0 µM
  residual activity: 87%
[22]; compound 0.1 µM
  residual activity: 13%
[22]; compound 1.0 µM
  residual activity: 6%
[23]; compound 1.0 µM
  residual activity: 72%
[24]; compound 0.1 µM
  residual activity: 107%
[24]; compound 1.0 µM
  residual activity: 96%
[25]; compound 0.1 µM
  residual activity: 124%
[25]; compound 1.0 µM
  residual activity: 97%
[27]; compound 0.1 µM
  residual activity: 92%
[27]; compound 1.0 µM
  residual activity: 82%
[28]; compound 0.1 µM
  residual activity: 98%
[28]; compound 1.0 µM
  residual activity: 93%
[29]; compound 0.1 µM
  residual activity: 100%
[29]; compound 1.0 µM
  residual activity: 94%
[30]; compound 0.1 µM
  residual activity: 14%
[30]; compound 1.0 µM
  residual activity: 13%
[31]; compound 0.1 µM
  residual activity: 104%
[31]; compound 1.0 µM
  residual activity: 89%
[32]; compound 1.0 µM
  residual activity: 17%
[33]; compound 0.1 µM
  residual activity: 97%
[33]; compound 1.0 µM
  residual activity: 98%
[34]; compound 0.1 µM
  residual activity: 102%
[34]; compound 1.0 µM
  residual activity: 80%
[35]; compound 0.1 µM
  residual activity: 95%
[35]; compound 1.0 µM
  residual activity: 94%
